Assay: xn = mol fraction of the nth substance listed
Details: 101.3 kPa, Liquid; for speed of sound: Single path-length method; for mass density: Vibrating tube method

CC(=O)[O-].OCC[NH2+]CCO [2,2'-azanediylbis(ethanol) acetate] + CC(C)O
Details | mass density, 293.15 K [kg/m3] | mass density, 303.15 K [kg/m3] | mass density, 313.15 K [kg/m3] | mass density, 323.15 K [kg/m3] | speed of sound, 293.15 K [m/s] | speed of sound, 303.15 K [m/s] | speed of sound, 313.15 K [m/s] | speed of sound, 323.15 K [m/s]
x1 = 0.102 | 857.7 | 849.5 | 841.1 | 832.5 | 1233.4 | 1200.3 | 1167.1 | 1133.6
x1 = 0.2 | 915.4 | 907.6 | 899.4 | 891.4 | 1301.5 | 1269.6 | 1237.8 | 1205.8
x1 = 0.299 | 965.3 | 957.7 | 949.8 | 942.3 | 1372.4 | 1341.2 | 1310.1 | 1279.1
x1 = 0.398 | 1009 | 1001 | 993.2 | 986.6 | 1448.2 | 1416.7 | 1386.3 | 1355.2
x1 = 0.502 | 1048 | 1041 | 1034 | 1025 | 1530.5 | 1498.3 | 1468.4 | 1438.7
x1 = 0.59 | 1076 | 1069 | 1061 | 1056 | 1596.5 | 1561.8 | 1530.4 | 1498.8
x1 = 0.696 | 1109 | 1102 | 1095 | 1089 | 1675.3 | 1638.8 | 1607 | 1576.7
x1 = 0.799 | 1137 | 1131 | 1124 | 1118 | 1756.3 | 1717.6 | 1684.7 | 1653.8
x1 = 0.9 | 1162 | 1155 | 1149 | 1142 | 1828.4 | 1782.1 | 1746.8 | 1714.4
x1 = 1 | 1180 | 1173 | 1167 | 1160 | 1884.7 | 1828.2 | 1788.6 | 1756

CC(=O)[O-].OCC[NH2+]CCO [2,2'-azanediylbis(ethanol) acetate] + CCCO
Details | mass density, 293.15 K [kg/m3] | mass density, 303.15 K [kg/m3] | mass density, 313.15 K [kg/m3] | mass density, 323.15 K [kg/m3] | speed of sound, 293.15 K [m/s] | speed of sound, 303.15 K [m/s] | speed of sound, 313.15 K [m/s] | speed of sound, 323.15 K [m/s]
x1 = 0.096 | 869.5 | 861.6 | 853.5 | 845.4 | 1286.3 | 1253.5 | 1221.2 | 1188.8
x1 = 0.199 | 929 | 921.2 | 913.4 | 905.7 | 1352.7 | 1321 | 1289.8 | 1258.8
x1 = 0.295 | 975 | 967.5 | 959.9 | 952 | 1415.2 | 1384.2 | 1353.6 | 1323.1
x1 = 0.4 | 1018 | 1012 | 1004 | 996.6 | 1488.2 | 1457.2 | 1427.3 | 1397.4
x1 = 0.501 | 1054 | 1047 | 1040 | 1033 | 1556.5 | 1524.7 | 1494.6 | 1465.4
x1 = 0.599 | 1085 | 1078 | 1072 | 1065 | 1626.4 | 1590.7 | 1559.2 | 1529.2
x1 = 0.697 | 1113 | 1106 | 1099 | 1093 | 1701.1 | 1657.4 | 1623.2 | 1592.3
x1 = 0.801 | 1137 | 1131 | 1124 | 1118 | 1756.5 | 1720.1 | 1688.9 | 1659.2
x1 = 0.901 | 1160 | 1153 | 1146 | 1140 | 1817.8 | 1772.9 | 1738.1 | 1707.4
x1 = 1 | 1180 | 1173 | 1167 | 1160 | 1884.7 | 1828.2 | 1788.6 | 1756

CC(=O)[O-].[NH3+]CCO [2-hydroxyethylammonium acetate] + CC(C)O
Details | mass density, 293.15 K [kg/m3] | mass density, 303.15 K [kg/m3] | mass density, 313.15 K [kg/m3] | mass density, 323.15 K [kg/m3] | speed of sound, 293.15 K [m/s] | speed of sound, 303.15 K [m/s] | speed of sound, 313.15 K [m/s] | speed of sound, 323.15 K [m/s]
x1 = 0.102 | 840.8 | 832.7 | 824.4 | 815.7 | 1218.6 | 1184.9 | 1151 | 1116.9
x1 = 0.2 | 888.4 | 880.8 | 872.9 | 864.8 | 1275.2 | 1242.9 | 1210.5 | 1177.8
x1 = 0.299 | 930.8 | 923.5 | 916 | 908.3 | 1334 | 1302.6 | 1271.5 | 1240.1
x1 = 0.397 | 970.4 | 963.3 | 956.2 | 948.5 | 1397.5 | 1366.2 | 1335.9 | 1305.6
x1 = 0.493 | 1007 | 999.7 | 992.8 | 985.5 | 1465.1 | 1435.1 | 1405.8 | 1376.6
x1 = 0.6 | 1042 | 1037 | 1030 | 1023 | 1549.8 | 1516.7 | 1487.9 | 1460.2
x1 = 0.692 | 1072 | 1066 | 1060 | 1052 | 1620.1 | 1588.6 | 1559.5 | 1532.3
x1 = 0.798 | 1103 | 1097 | 1091 | 1085 | 1701.8 | 1666.8 | 1638.2 | 1612
x1 = 0.894 | 1129 | 1124 | 1118 | 1112 | 1779 | 1742.8 | 1713.8 | 1687.8
x1 = 1 | 1150 | 1144 | 1139 | 1132 | 1812.9 | 1781.2 | 1754.7 | 1730.9

CC(=O)[O-].[NH3+]CCO [2-hydroxyethylammonium acetate] + CCCO
Details | mass density, 293.15 K [kg/m3] | mass density, 303.15 K [kg/m3] | mass density, 313.15 K [kg/m3] | mass density, 323.15 K [kg/m3] | speed of sound, 293.15 K [m/s] | speed of sound, 303.15 K [m/s] | speed of sound, 313.15 K [m/s] | speed of sound, 323.15 K [m/s]
x1 = 0.101 | 855.6 | 847.8 | 839.9 | 831.9 | 1274.5 | 1241.6 | 1208.9 | 1176.3
x1 = 0.199 | 900 | 892.5 | 884.8 | 877.1 | 1323.5 | 1291.7 | 1260.2 | 1228.7
x1 = 0.298 | 941.7 | 934.5 | 927.2 | 919.6 | 1377.3 | 1346.4 | 1316 | 1285.6
x1 = 0.401 | 981.1 | 974.1 | 967.3 | 960.3 | 1437.7 | 1407.8 | 1378.3 | 1348.9
x1 = 0.502 | 1016 | 1010 | 1003 | 996.3 | 1502 | 1472.9 | 1444.4 | 1416.3
x1 = 0.592 | 1046 | 1040 | 1033 | 1027 | 1561.1 | 1532.2 | 1504.3 | 1477
x1 = 0.681 | 1073 | 1067 | 1061 | 1055 | 1624.3 | 1595.1 | 1567.7 | 1541.3
x1 = 0.795 | 1104 | 1098 | 1092 | 1086 | 1711.5 | 1678.6 | 1650.8 | 1624
x1 = 0.89 | 1130 | 1124 | 1118 | 1112 | 1777.8 | 1743.4 | 1715.9 | 1690.2
x1 = 1 | 1150 | 1144 | 1139 | 1133 | 1812.9 | 1781.2 | 1754.7 | 1730.9

— the NIST ThermoML archive (doi:10.1021/acs.jced.9b00147)
